EC50, IC50 and AC50 data for six compounds are collected here from ChEMBL document CHEMBL1201862, “PubChem BioAssay data set” (2004).

Experiment [1] deals with T1, Heat shock factor protein 1 (Mus musculus, UniProt P38532).
T1 sequence (P38532 whole entry): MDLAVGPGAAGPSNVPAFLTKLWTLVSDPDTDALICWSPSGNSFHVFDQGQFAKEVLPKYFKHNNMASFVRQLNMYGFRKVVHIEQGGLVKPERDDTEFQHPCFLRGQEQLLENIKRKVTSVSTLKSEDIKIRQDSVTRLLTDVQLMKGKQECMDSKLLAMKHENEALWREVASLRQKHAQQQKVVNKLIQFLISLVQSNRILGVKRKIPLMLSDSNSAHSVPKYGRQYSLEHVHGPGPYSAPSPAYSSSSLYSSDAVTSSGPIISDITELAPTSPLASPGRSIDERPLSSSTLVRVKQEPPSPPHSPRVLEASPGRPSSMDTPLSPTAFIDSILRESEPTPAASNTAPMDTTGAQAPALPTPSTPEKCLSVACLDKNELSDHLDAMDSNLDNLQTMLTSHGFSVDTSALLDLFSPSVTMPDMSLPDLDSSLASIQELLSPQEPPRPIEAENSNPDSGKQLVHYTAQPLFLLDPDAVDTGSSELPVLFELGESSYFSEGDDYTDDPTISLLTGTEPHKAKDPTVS
In words: HSF1 potentiators in luciferase reporter cells, confirmation, cell-based, NIH3T3, luminescence, dose retest (AID 435004).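 Note: stress induced by proteasome inhibitor MG132 added 30 min after compound; luciferase reporter driven by HSF1 response element in NIH3T3 cells; actives raise luminescence as potentiators of the MG132 stress response.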 The format is functional.

Experiment [2] can be described thus: Luminescence Cell-Based Dose Response HTS to Identify Inhibitors of 5'UTR Stem-Loop Driven Prion Protein mRNA Translation in H4 Neuroglioblastoma Cells. [Related pubchem assays: 1827 (Project Summary), 1813 (Primary HTS)]. Format: functional.
A short description of experiment [3]: inhibitors of firefly luciferase expression or activity, dose response, H4 neuroglioma cells, luminescence (AID 1990). The format is functional, cell-based.
The target in experiment [4] is T2, Ubiquitin-conjugating enzyme E2 N (Homo sapiens, UniProt P61088).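 Note: Dose-response confirmation in a TR-FRET assay detecting UBC13-driven polyubiquitin chain formation, inhibition measured.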
T2 sequence (P61088 whole entry): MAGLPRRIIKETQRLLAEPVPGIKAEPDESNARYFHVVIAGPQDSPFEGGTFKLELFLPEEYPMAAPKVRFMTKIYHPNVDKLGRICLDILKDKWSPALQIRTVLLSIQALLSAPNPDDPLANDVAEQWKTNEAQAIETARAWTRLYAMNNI
The format is functional.

A short description of experiment [5]: inhibitors of SNCA 5'UTR-driven reporter translation, confirmation, H4 neuroglioma cells, luminescence (AID 1988). The format is functional, cell-based.
Experiment [6] can be described thus: non-specific cell cytotoxicity, dose response, cytotoxicity control for PAX8 inhibitor project, plate reader, dry powder samples (AID 743021). The format is functional, cell-based.
Experiment [7] has as its system INS1. Nature of the experiment: beta cell apoptosis inhibitors, cytokine rescue, dose response, luminescence, retest (AID 449756).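 Note: cell death triggered by IL-1 beta plus TNF-alpha plus IFN-gamma mixture; protective hits raise ATP signal compared with cytokine alone wells.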 Format: functional, cell-based. The conditions noted are these: Rattus norvegicus.
In experiment [8] the target is Paired box protein Pax-8 (Homo sapiens, UniProt Q06710). In words: inhibitors of PAX8-driven TPO luciferase reporter, dose response, RMG-I cells, cherry-pick (AID 687027).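 Note: luciferase reporter driven by Pax8 target thyroperoxidase promoter measured by SteadyGlo luminescence.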 Format: functional, cell-based. Background: A reporter such as luciferase makes a cellular process visible.
Experiment [9] in a line: cytotoxicity toward NIH3T3 fibroblasts, dose response, counter-screen, cell-based, ATP luminescence, mouse fibroblasts (AID 2010).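 Note: cells exposed to compound for about 90 hours before reading.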 The format is functional. For orientation: Counterscreens check selectivity or assay interference.
Experiment [10] in a line: inhibitors of intracellular T. cruzi replication, confirmation, NIH3T3 host cells, beta-gal luminescence (AID 2044).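 Note: intracellular parasites grown in NIH/3T3 mouse fibroblasts as host cells; luminescent beta-galactosidase reporter signal from transgenic T. cruzi replicating inside host cells; inhibitors lower the luminescence signal.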 Format: functional, cell-based.
Experiment [11] can be described thus: NIH-3T3 fibroblast cytotoxicity, dose response, cytotoxicity control, cell-based, fluorescence, Alamar Blue, secondary assay (AID 2327).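 Note: NIH-3T3 mouse fibroblasts cultured with fluconazole at 8 µg/mL.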 Format: functional.
Experiment [12] has as its target Disintegrin and metalloproteinase domain-containing protein 17 (Homo sapiens, UniProt P78536). In words: ADAM17 protease inhibitors, dose response, counter-screen for ADAM10 exosite inhibitor project, biochemical, quenched FRET substrate (AID 743253).
Experiment [13] is described as follows: C. albicans growth with fluconazole, confirmation, fluorescence, retest (AID 2467). The format is functional, cell-based.
A short description of experiment [14]: ADAM10 inhibitors, peptide cleavage, dose response, biochemical, QFRET (AID 743254).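 Note: ADAM10 enzyme with the DM2 quenched FRET peptide as substrate; EDANS fluorescence gain as the protease cuts the substrate; inhibitor potency against ADAM10 proteolytic activity.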
For experiment [15], the target named is Heat shock protein HSP 90-alpha (Homo sapiens, UniProt P07900). Format: functional, organism-based.
Experiment [16] deals with Peroxisome proliferator-activated receptor gamma/Nuclear receptor coactivator 2 (Homo sapiens, UniProt P37231). In words: TR-FRET dose response biochemical High Throughput Screening assay for agonists of the steroid receptor coactivator 2 (SRC-2) recruitment by the peroxisome proliferator-activated receptor gamma (PPAR gamma): non-selective agonists. [Related pubchem assays: 1297, 1032 ]. Format: functional. (In TR-FRET formats the signal depends on donor and acceptor labels being close together.)

In experiment [17] the target is Peroxisome proliferator-activated receptor gamma/Nuclear receptor coactivator 1 (Homo sapiens, UniProt P37231). In words: TR-FRET dose response biochemical High Throughput Screening assay for agonists of the steroid receptor coactivator 1 (SRC-1) recruitment by the peroxisome proliferator-activated receptor gamma (PPAR gamma): non-selective agonists. [Related pubchem assays (depositor defined):AID1300, AID1808, AID504735, AID631]. The format is protein assay.

Experiment [18] concerns the target Peroxisome proliferator-activated receptor gamma/Nuclear receptor coactivator 3 (Homo sapiens, UniProt P37231). Nature of the experiment: TR-FRET dose response biochemical High Throughput Screening assay for agonists of the steroid receptor coactivator 3 (SRC-3) recruitment by the peroxisome proliferator-activated receptor gamma (PPAR gamma): non-selective agonists. [Related pubchem assays: 1301 (Confirmation screen.), 1048 (Primary screen.)]. Format: functional.

Experiment [19] addresses T3, 1-phosphatidylinositol 4,5-bisphosphate phosphodiesterase beta-3 (Homo sapiens, UniProt Q01970).
T3 sequence (Q01970 whole entry): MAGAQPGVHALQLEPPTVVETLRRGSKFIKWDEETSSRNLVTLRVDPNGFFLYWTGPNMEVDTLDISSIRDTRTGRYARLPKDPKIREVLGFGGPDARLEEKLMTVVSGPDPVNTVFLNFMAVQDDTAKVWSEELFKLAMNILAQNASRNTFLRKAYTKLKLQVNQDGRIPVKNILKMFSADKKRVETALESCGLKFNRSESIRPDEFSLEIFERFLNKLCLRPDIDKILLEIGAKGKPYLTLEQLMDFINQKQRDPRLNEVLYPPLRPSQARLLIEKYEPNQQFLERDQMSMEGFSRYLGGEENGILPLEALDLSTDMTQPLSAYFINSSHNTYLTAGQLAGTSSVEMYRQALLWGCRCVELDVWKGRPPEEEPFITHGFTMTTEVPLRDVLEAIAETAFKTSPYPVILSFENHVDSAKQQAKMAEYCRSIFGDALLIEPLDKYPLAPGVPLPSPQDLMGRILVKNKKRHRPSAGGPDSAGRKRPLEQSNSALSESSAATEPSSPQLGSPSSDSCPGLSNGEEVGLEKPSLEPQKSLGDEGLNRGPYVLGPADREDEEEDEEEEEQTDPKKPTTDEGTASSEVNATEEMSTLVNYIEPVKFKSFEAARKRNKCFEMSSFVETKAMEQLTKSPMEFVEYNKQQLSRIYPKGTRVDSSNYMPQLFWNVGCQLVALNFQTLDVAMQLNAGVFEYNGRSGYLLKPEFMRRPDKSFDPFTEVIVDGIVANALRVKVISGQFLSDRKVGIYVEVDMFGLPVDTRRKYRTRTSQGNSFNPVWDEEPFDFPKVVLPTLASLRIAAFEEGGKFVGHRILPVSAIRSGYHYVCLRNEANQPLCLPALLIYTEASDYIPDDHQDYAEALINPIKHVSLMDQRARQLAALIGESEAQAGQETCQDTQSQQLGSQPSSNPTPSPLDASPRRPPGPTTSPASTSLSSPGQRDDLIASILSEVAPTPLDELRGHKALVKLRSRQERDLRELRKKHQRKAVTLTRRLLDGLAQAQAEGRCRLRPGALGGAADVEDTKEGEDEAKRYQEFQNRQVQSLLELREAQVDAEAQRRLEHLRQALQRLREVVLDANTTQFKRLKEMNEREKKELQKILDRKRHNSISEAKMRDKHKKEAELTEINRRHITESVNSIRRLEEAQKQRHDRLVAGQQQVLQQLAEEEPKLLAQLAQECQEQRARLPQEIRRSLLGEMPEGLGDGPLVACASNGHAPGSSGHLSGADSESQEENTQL
Nature of the experiment: Fluorescence-based biochemical high throughput dose response assay to identify inhibitors of phospholipase C isozymes (PLC-B3).

For experiment [20], the target named is T4, 1-phosphatidylinositol 4,5-bisphosphate phosphodiesterase gamma-1 (Homo sapiens, UniProt P19174).
T4 sequence (P19174 whole entry): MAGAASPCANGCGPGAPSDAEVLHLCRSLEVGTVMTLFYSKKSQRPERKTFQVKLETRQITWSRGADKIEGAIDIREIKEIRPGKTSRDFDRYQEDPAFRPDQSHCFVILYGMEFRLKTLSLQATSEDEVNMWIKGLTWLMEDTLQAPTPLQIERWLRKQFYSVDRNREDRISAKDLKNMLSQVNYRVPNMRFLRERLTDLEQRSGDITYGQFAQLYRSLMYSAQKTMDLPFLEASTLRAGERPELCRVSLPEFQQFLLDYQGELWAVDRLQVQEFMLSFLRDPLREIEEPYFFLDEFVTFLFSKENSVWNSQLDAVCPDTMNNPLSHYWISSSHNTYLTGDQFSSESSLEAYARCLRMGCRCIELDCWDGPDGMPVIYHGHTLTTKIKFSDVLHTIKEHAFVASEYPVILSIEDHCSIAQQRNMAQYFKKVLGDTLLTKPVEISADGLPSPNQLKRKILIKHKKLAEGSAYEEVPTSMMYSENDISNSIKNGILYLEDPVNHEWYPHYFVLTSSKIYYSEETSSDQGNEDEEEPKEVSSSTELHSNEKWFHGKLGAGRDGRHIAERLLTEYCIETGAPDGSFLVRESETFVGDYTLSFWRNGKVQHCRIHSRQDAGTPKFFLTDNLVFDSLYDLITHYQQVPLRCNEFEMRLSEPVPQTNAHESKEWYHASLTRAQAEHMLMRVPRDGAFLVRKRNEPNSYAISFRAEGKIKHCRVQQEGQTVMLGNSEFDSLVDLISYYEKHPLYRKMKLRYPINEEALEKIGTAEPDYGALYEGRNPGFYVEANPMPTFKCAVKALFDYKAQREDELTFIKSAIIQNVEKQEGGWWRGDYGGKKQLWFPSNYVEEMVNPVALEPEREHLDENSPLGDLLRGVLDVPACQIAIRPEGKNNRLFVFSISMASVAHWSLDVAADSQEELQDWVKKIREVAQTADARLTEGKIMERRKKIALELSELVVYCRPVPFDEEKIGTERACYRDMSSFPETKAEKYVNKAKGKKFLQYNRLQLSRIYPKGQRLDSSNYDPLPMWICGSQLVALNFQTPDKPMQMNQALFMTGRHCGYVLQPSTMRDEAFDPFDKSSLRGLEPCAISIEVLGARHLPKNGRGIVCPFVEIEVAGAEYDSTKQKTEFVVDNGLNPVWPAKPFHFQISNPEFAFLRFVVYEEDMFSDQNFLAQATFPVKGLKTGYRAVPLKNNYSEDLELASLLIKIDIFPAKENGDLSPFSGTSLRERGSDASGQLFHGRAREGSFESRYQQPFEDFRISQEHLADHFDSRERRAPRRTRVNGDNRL
In words: Counterscreen for inhibitors of phospholipase C isozymes (PLC-B3): Fluorescence-based biochemical high throughput dose response assay to identify inhibitors of phospholipase C isozymes (PLC-gamma1).

Activity calls are given as the source filed them.

Usually EC50 stands for the concentration that produces a half-maximal response. Usually IC50 stands for the concentration that gives 50% inhibition. As a reminder, the AC50 is the concentration giving half of the maximal activity seen.

Chain of Disintegrin and metalloproteinase domain-containing protein 17 (P78536 whole entry, the tested form may be a part): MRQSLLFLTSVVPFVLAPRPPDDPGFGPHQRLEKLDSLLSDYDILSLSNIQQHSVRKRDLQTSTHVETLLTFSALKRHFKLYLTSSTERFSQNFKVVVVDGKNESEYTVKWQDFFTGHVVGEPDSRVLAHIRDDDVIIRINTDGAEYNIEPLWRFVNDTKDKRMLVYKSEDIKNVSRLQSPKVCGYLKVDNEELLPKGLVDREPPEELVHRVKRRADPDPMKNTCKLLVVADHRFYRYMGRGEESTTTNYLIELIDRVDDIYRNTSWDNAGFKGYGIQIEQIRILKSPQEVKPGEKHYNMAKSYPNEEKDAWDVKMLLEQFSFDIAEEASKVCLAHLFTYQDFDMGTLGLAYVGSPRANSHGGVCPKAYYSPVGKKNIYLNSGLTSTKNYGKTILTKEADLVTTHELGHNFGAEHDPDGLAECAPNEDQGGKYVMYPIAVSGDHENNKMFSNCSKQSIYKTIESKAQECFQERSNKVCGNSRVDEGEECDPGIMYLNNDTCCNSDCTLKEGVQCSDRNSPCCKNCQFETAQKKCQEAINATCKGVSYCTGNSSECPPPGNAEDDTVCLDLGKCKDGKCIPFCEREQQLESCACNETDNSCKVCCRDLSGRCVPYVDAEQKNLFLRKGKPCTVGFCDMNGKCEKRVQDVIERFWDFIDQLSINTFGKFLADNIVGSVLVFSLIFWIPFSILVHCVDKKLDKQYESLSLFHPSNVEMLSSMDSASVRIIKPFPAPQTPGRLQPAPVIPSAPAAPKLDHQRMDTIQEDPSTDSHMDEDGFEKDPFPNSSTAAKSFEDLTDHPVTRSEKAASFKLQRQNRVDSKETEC
Chain of Paired box protein Pax-8 (Q06710 whole entry): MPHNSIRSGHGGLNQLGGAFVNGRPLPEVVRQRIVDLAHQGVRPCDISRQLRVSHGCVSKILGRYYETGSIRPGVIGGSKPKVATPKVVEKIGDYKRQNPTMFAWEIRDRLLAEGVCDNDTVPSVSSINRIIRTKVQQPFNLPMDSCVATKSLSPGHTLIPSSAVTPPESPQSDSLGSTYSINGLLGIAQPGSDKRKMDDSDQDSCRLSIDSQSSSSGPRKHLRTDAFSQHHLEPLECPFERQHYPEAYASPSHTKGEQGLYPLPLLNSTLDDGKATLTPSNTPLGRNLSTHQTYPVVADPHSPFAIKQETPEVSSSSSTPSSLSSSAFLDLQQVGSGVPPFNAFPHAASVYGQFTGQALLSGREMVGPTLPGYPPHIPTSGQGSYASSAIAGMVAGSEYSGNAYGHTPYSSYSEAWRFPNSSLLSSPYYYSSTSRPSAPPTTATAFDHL
Chain of Peroxisome proliferator-activated receptor gamma/Nuclear receptor coactivator 3 (P37231 whole entry): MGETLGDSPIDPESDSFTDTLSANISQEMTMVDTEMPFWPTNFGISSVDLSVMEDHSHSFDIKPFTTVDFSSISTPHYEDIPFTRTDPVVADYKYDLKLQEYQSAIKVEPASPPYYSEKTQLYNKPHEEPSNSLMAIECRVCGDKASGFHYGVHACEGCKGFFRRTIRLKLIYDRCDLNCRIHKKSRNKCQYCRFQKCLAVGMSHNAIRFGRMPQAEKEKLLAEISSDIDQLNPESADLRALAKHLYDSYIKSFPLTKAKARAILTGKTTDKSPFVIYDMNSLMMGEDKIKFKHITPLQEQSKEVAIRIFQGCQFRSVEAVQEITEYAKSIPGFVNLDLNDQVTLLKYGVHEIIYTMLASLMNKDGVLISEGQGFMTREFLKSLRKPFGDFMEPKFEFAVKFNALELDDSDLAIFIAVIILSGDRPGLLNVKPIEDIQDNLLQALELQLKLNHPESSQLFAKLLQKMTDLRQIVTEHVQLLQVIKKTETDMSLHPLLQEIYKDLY
Chain of Peroxisome proliferator-activated receptor gamma/Nuclear receptor coactivator 3 (Q9Y6Q9 whole entry, further chain): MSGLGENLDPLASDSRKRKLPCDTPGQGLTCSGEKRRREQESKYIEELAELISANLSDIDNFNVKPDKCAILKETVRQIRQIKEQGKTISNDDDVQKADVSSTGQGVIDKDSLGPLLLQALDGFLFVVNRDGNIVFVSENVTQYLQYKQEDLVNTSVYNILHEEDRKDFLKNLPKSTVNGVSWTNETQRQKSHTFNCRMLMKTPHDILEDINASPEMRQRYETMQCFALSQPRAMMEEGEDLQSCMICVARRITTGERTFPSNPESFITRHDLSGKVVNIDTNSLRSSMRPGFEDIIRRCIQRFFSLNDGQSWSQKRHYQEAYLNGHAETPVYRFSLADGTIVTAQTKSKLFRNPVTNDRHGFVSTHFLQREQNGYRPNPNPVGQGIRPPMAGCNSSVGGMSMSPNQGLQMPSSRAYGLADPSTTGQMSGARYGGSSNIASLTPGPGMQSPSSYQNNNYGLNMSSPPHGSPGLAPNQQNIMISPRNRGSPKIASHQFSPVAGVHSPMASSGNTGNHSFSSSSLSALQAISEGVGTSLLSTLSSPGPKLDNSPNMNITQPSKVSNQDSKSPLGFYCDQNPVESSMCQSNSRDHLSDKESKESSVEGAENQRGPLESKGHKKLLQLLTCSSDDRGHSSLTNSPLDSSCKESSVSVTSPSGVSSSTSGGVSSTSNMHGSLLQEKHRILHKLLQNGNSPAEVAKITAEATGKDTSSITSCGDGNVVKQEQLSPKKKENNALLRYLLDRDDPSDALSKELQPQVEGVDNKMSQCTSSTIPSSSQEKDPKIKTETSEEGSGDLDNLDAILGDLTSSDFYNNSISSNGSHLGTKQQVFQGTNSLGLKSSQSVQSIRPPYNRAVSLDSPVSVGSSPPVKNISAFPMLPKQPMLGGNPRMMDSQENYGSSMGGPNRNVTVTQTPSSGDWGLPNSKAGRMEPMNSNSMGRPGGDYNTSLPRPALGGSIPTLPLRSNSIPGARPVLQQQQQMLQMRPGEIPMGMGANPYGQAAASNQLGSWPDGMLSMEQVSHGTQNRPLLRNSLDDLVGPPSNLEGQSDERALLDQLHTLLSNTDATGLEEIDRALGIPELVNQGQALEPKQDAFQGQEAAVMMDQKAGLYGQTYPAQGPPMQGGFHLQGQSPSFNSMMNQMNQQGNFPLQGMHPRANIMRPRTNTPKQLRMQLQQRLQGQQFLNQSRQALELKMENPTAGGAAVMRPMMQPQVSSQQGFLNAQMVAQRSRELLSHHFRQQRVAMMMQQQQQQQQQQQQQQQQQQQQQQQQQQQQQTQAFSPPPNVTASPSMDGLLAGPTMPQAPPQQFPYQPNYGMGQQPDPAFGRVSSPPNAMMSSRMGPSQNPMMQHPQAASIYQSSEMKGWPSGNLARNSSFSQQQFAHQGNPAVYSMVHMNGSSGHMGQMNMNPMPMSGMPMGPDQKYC

For `COc1ccc(/C=N/Nc2cc(C)nc3ccc(Br)cc23)cc1`, the EC50 in experiment [1] was > 260 µM (inactive); in experiment [2], 8.17 µM (active); in experiment [3], > 120 µM (not active); in [5], 7.61 µM (active); in experiment [9] it was 8.92 µM (active); in [10], 1.55 µM (active). In addition, the IC50 in experiment [4] is > 20 µM (inactive). The AC50 is 26.8 µM (active) in [6], 5.79 µM (active) in [7] and 8.78 µM (active) in [8].

For `CCOc1ccc(C(Nc2cccnc2)c2cc(Cl)c3cccnc3c2O)cc1` (stereo unspecified), the EC50 in [11] was 7.98 µM (inconclusive); in experiment [2] it was 13.7 µM (active); in experiment [3], 12.1 µM (active); in experiment [5], > 120 µM (not active); in experiment [13], 0.348 µM (active). Further, the IC50 in [12] is 9.11 µM (active); in [14], 5.53 µM (active). In addition, the half-maximal activity concentration (AC50) is 3.6 µM (active) in [7] and 2.68 µM (active) in [15].

For the compound `C=CCC[C@@H](Cc1ccc(F)cc1)C(=O)OC[C@@H](Cc1c[nH]c2ccccc12)NC(=O)[C@H](CC=C)CC(=O)N(CCO)Cc1ccccc1`, the IC50 in [12] was > 69.5 µM (inactive); in [14], 15.4 µM (inactive). In addition, the AC50 in [8] is 10.9 µM (active).

For `COc1ccc(NC(C)C(=O)N/N=C/c2ccccc2OCc2cccc(Br)c2)cc1` (stereo unspecified), the EC50 in experiment [16] was > 79.4 µM (not active); in experiment [17], > 79.4 µM (inactive); in experiment [18] it was > 79.4 µM (not active). The IC50 in [12] and in experiment [14] was > 69.5 µM (inactive) each time.

With `CCN(C(=O)COC(=O)c1ccc(C=O)cc1)c1c(N)n(Cc2ccccc2)c(=O)[nH]c1=O`, the IC50 in [19] and in [20] was > 122 µM (inactive) in each case.

Turning to `NS(=O)(=O)c1ccc(N/N=C/c2ccc(O)cc2O)c([N+](=O)[O-])c1`, the IC50 in experiment [19] and in experiment [20] was > 123 µM (inactive) in each case.
